Measured values published in patent US20230123334A1, “AMINO LIPID COMPOUND, PREPARATION METHOD THEREFOR, AND APPLICATION THEREOF” (SHENZHEN SHENXIN BIOTECHNOLOGY CO., LTD., priority 2020, published 2023).

Tested on: HEK293 cells
Experiment: Preliminary screening as mRNA vectors, EGFP mRNA transfection of HEK293 cells
Assay type: cell-based
Conditions: EGFP mRNA 50 ng per well, 96-well plates; percentage of GFP fluorescent cells relative to total number of cells (Hoechst)
Summary of the method: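 Each well of HEK293 cells received 50 ng of EGFP mRNA. Efficiency was expressed as percent GFP-expressing cells over Hoechst-defined total cell number.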

SMILES: CCCCCCCCCCCCCCSc1nc(NCCCCCCCCCCCCC)nc(NCCN2CCOCC2)n1 [Compound D2S14N13]
- Absolute mRNA transfection efficiency in HEK293 cells: 1.1%

SMILES: CCCCCCCCCCCCCCCCCCNc1nc(NCCN2CCCCC2)nc(SCCCCCCCC)n1 [Compound D4S8N18]
- Absolute mRNA transfection efficiency in HEK293 cells: 3.5%

SMILES: CCCCCCCCCCCCCCCCNc1nc(NCCCN2CCN(C)CC2)nc(SCCCCCCCCCCCC)n1 [Compound D9S12N16]
- Absolute mRNA transfection efficiency in HEK293 cells: 1.2%

SMILES: CCCCCCCCCCSc1nc(NCCCCCCC)nc(NCCCN(C)C)n1 [Compound D6S10N7]
- Absolute mRNA transfection efficiency in HEK293 cells: 4.4%

SMILES: CCCCCCSc1nc(NCCCN(C)C)nc(SCCCCCC)n1 [Compound D6S6S6]
- Absolute mRNA transfection efficiency in HEK293 cells: 12.6%

SMILES: CCCCCCCCCCCSc1nc(NCCN(CC)CC)nc(SCCCCCCCC)n1 [Compound D7S8S11]
- Absolute mRNA transfection efficiency in HEK293 cells: 3.2%

SMILES: CCCCCCCCCCCCCNc1nc(NCCN2CCN(C)CC2)nc(SCCCCCCCCCC)n1 [Compound D5S10N13]
- Absolute mRNA transfection efficiency in HEK293 cells: 4.6%

SMILES: CCCCCCCCCCCSc1nc(NCC2CCN(C)CC2)nc(SCCCCCCCC)n1 [Compound D10S8S11]
- Absolute mRNA transfection efficiency in HEK293 cells: 67.0%

SMILES: CCCCCCCCCSc1nc(NCCCCCC)nc(NCC2CCN(C)CC2)n1 [Compound D10S9N6]
- Absolute mRNA transfection efficiency in HEK293 cells: 0.6%

SMILES: CCCCCCCCCCCCNc1nc(NCCN2CCOCC2)nc(SCCCCCCCCC)n1 [Compound D2S9N12]
- Absolute mRNA transfection efficiency in HEK293 cells: 15.2%

SMILES: CCCCCCCCCNc1nc(NCCCN2CCN(C)CC2)nc(SCCCCCCCCC)n1 [Compound D9S9N9]
- Absolute mRNA transfection efficiency in HEK293 cells: 76.1%

SMILES: CCCCCCCCCCCCCCCCSc1nc(NCCCCCCC)nc(NCCN2CCN(C)CC2)n1 [Compound D5S16N7]
- Absolute mRNA transfection efficiency in HEK293 cells: 82.6%

SMILES: CCCCCCCCCCCCCNc1nc(NCCN(C)C)nc(SCCCCCCCC)n1 [Compound D1S8N13]
- Absolute mRNA transfection efficiency in HEK293 cells: 15.5%

SMILES: CCCCCCCCCCCCCCCNc1nc(NCCN2CCOCC2)nc(SCCCCCCCCC)n1 [Compound D2S9N15]
- Absolute mRNA transfection efficiency in HEK293 cells: 5.9%

SMILES: CCCCCCCCCCCCCCCCNc1nc(NCCN2CCN(C)CC2)nc(SCCCCCCCCCCC)n1 [Compound D5S11N16]
- Absolute mRNA transfection efficiency in HEK293 cells: 3.9%

SMILES: CCCCCCCCCSc1nc(NCCN(C)C)nc(SCCCCCCC)n1 [Compound D1S7S9]
- Absolute mRNA transfection efficiency in HEK293 cells: 8.1%

SMILES: CCCCCCCCCSc1nc(NCCN2CCOCC2)nc(SCCCCCCCC)n1 [Compound D2S8S9]
- Absolute mRNA transfection efficiency in HEK293 cells: 84.9%

SMILES: CCCCCCCCCCCCCNc1nc(NCCCN2CCOCC2)nc(SCCCCCC)n1 [Compound D8S6N13]
- Absolute mRNA transfection efficiency in HEK293 cells: 0.0%

SMILES: CCCCCCCCCCCCCNc1nc(NCCCN2CCOCC2)nc(SCCCCCCCCCCC)n1 [Compound D8S11N13]
- Absolute mRNA transfection efficiency in HEK293 cells: 3.1%

SMILES: CCCCCCCCCCCCNc1nc(NCCCN(C)C)nc(SCCCCCCCCCCC)n1 [Compound D6S11N12]
- Absolute mRNA transfection efficiency in HEK293 cells: 15.9%

SMILES: CCCCCCCCCSc1nc(NCCN2CCN(C)CC2)nc(SCCCCCC)n1 [Compound D5S6S9]
- Absolute mRNA transfection efficiency in HEK293 cells: 8.3%

SMILES: CCCCCCCCCCCCCCCCNc1nc(NCCN(CC)CC)nc(SCCCCCC)n1 [Compound D7S6N16]
- Absolute mRNA transfection efficiency in HEK293 cells: 3.0%

SMILES: CCCCCCCCCCCNc1nc(NCCN(CC)CC)nc(SCCCCCC)n1 [Compound D7S6N11]
- Absolute mRNA transfection efficiency in HEK293 cells: 3.8%

SMILES: CCCCCCCCCCCCN(CCCCCCCCCCCC)c1nc(NCCN2CCN(C)CC2)nc(SCCCCCCCCCCC)n1 [D5S11^2N12]
- Absolute mRNA transfection efficiency in HEK293 cells: 0.6%

SMILES: CCCCCCCCCCCCCCCNc1nc(NCCN2CCN(C)CC2)nc(SCCCCCCCCC)n1 [Compound D5S9N15]
- Absolute mRNA transfection efficiency in HEK293 cells: 32.9%

SMILES: CCCCCCCCCCCCCCCCCCNc1nc(NCCCN2CCN(C)CC2)nc(SCCCCCCCC)n1 [Compound D9S8N18]
- Absolute mRNA transfection efficiency in HEK293 cells: 29.4%

SMILES: CCCCCCCCCCCSc1nc(NCCCCCCCC)nc(NCCN(C)C)n1 [Compound D1S11N8]
- Absolute mRNA transfection efficiency in HEK293 cells: 13.1%

SMILES: CCCCCCCCCCCCCCCCCCNc1nc(NCCN(CC)CC)nc(SCCCCCCCCC)n1 [Compound D7S9N18]
- Absolute mRNA transfection efficiency in HEK293 cells: 21.1%

SMILES: CCCCCCCCCCCCCCCCCCSc1nc(NCCCCCCCC)nc(NCC2CCN(C)CC2)n1 [Compound D10S18N8]
- Absolute mRNA transfection efficiency in HEK293 cells: 16.8%

SMILES: CCCCCCCCCCCSc1nc(NCCCN2CCN(C)CC2)nc(SCCCCCCCC)n1 [Compound D9S8S11]
- Absolute mRNA transfection efficiency in HEK293 cells: 97.6%

SMILES: CCCCCCCCCCCCCCCCCCSc1nc(NCCN(C)C)nc(SCCCCCCC)n1 [Compound D1S7S18]
- Absolute mRNA transfection efficiency in HEK293 cells: 4.1%

SMILES: CCCCCCCCCCCCSc1nc(NCCCCCCCCCCC)nc(NCCN2CCCCC2)n1 [Compound D4S12N11]
- Absolute mRNA transfection efficiency in HEK293 cells: 3.7%

SMILES: CCCCCCCCCCCCCCCCCCNc1nc(NCCCN2CCOCC2)nc(SCCCCCCCCC)n1 [Compound D8S9N18]
- Absolute mRNA transfection efficiency in HEK293 cells: 1.9%

SMILES: CCCCCCCCCCCNc1nc(NCCN(C)C)nc(SCCCCCCC)n1 [Compound D1S7N11]
- Absolute mRNA transfection efficiency in HEK293 cells: 5.8%

SMILES: CCCCCCCSc1nc(NCCN(CC)CC)nc(SCCCCCCC)n1 [Compound D7S7S7]
- Absolute mRNA transfection efficiency in HEK293 cells: 18.4%

SMILES: CCCCCCCCCCCCCCCCCCSc1nc(NCCCCCCC)nc(NCCN2CCCC2)n1 [Compound D3S18N7]
- Absolute mRNA transfection efficiency in HEK293 cells: 97.2%

SMILES: CCCCCCCCCCCCCCCCCCSc1nc(NCCCCCCCCCCCCCCC)nc(NCCCN(C)C)n1 [Compound D6S18N15]
- Absolute mRNA transfection efficiency in HEK293 cells: 0.0%

SMILES: CCCCCCCCCCCCCCCCNc1nc(NCCCN2CCOCC2)nc(SCCCCCCCCCCCCCCC)n1 [Compound D8S15N16]
- Absolute mRNA transfection efficiency in HEK293 cells: 0.4%

SMILES: CCCCCCCCCSc1nc(NCCCN2CCN(C)CC2)nc(SCCCCCC)n1 [Compound D9S6S9]
- Absolute mRNA transfection efficiency in HEK293 cells: 5.6%

SMILES: CCCCCCCCCCSc1nc(NCCN2CCCCC2)nc(SCCCCCCC)n1 [Compound D4S7S10]
- Absolute mRNA transfection efficiency in HEK293 cells: 2.7%

SMILES: CCCCCCCCCCCCCCCSc1nc(NCCCCCCCCCCCC)nc(NCCN2CCOCC2)n1 [Compound D2S15N12]
- Absolute mRNA transfection efficiency in HEK293 cells: 0.1%

SMILES: CCCCCCCCCCCSc1nc(NCCCCCCCCC)nc(NCCN2CCOCC2)n1 [Compound D2S11N9]
- Absolute mRNA transfection efficiency in HEK293 cells: 2.5%

SMILES: CCCCCCCCCCCCSc1nc(NCCCCCCCCCCC)nc(NCCCN2CCOCC2)n1 [Compound D8S12N11]
- Absolute mRNA transfection efficiency in HEK293 cells: 0.4%

SMILES: CCCCCCCCCCCCCCCCSc1nc(NCCCCCCCCCCC)nc(NCCN(C)C)n1 [Compound D1S16N11]
- Absolute mRNA transfection efficiency in HEK293 cells: 19.8%

SMILES: CCCCCCCCCCCCNc1nc(NCCN(CC)CC)nc(SCCCCCCCCCCC)n1 [Compound D7S11N12]
- Absolute mRNA transfection efficiency in HEK293 cells: 7.8%

SMILES: CCCCCCCCCCCCCCCCCCSc1nc(NCCCCCCCCCCCCC)nc(NCCCN(C)C)n1 [Compound D6S18N13]
- Absolute mRNA transfection efficiency in HEK293 cells: 1.0%

SMILES: CCCCCCCCCCCCCCCCCCSc1nc(NCCCCCCCCCCC)nc(NCCN2CCOCC2)n1 [Compound D2S18N11]
- Absolute mRNA transfection efficiency in HEK293 cells: 0.5%

SMILES: CCCCCCCCCCCCCCCCCCSc1nc(NCCCCCCCCCCCC)nc(NCCN2CCN(C)CC2)n1 [Compound D5S18N12]
- Absolute mRNA transfection efficiency in HEK293 cells: 1.7%

SMILES: CCCCCCCCCCCCNc1nc(NCCCN2CCOCC2)nc(SCCCCCCCC)n1 [Compound D8S8N12]
- Absolute mRNA transfection efficiency in HEK293 cells: 3.8%

SMILES: CCCCCCCCCCCNc1nc(NCC2CCN(C)CC2)nc(SCCCCCCC)n1 [Compound D10S7N11]
- Absolute mRNA transfection efficiency in HEK293 cells: 25.3%

SMILES: CCCCCCCCCCCCCCCCCCNc1nc(NCC2CCN(C)CC2)nc(SCCCCCCCCCCCCCCCC)n1 [Compound D10S16N18]
- Absolute mRNA transfection efficiency in HEK293 cells: 3.0%

SMILES: CCCCCCCCCSc1nc(NCCCCCCCC)nc(NCCCN2CCN(C)CC2)n1 [Compound D9S9N8]
- Absolute mRNA transfection efficiency in HEK293 cells: 9.2%

SMILES: CCCCCCCCCCCCCNc1nc(NCCN(C)C)nc(SCCCCCCCCCC)n1 [Compound D1S10N13]
- Absolute mRNA transfection efficiency in HEK293 cells: 1.7%

SMILES: CCCCCCCNc1nc(NCCN(CC)CC)nc(SCCCCCC)n1 [Compound D7S6N7]
- Absolute mRNA transfection efficiency in HEK293 cells: 0.0%

SMILES: CCCCCCCSc1nc(NCCCCCC)nc(NCCN2CCCC2)n1 [Compound D3S7N6]
- Absolute mRNA transfection efficiency in HEK293 cells: 5.8%

SMILES: CCCCCCCCCCCCN(CCCCCCCCCCCC)c1nc(NCCN2CCCCC2)nc(SCCCCCCCCC)n1 [D4S9^2N12]
- Absolute mRNA transfection efficiency in HEK293 cells: 0.1%

SMILES: CCCCCCCCCCCCCCCSc1nc(NCCCCCC)nc(NCCCN2CCOCC2)n1 [Compound D8S15N6]
- Absolute mRNA transfection efficiency in HEK293 cells: 3.5%

SMILES: CCCCCCCCCCCCCCCCSc1nc(NCCCCCCCCCCCCC)nc(NCC2CCN(C)CC2)n1 [Compound D10S16N13]
- Absolute mRNA transfection efficiency in HEK293 cells: 7.1%

SMILES: CCCCCCCCCCCCCCCCCCSc1nc(NCCCN2CCN(C)CC2)nc(SCCCCCC)n1 [Compound D9S6S18]
- Absolute mRNA transfection efficiency in HEK293 cells: 62.8%

SMILES: CCCCCCCCCCCCN(CCCCCCCCCCCC)c1nc(NCC2CCN(C)CC2)nc(SCCCCCCC)n1 [D10S7^2N12]
- Absolute mRNA transfection efficiency in HEK293 cells: 1.4%

SMILES: CCCCCCCCCCCCCCSc1nc(NCCCCCCC)nc(NCCN2CCCC2)n1 [Compound D3S14N7]
- Absolute mRNA transfection efficiency in HEK293 cells: 64.2%

SMILES: CCCCCCCCCCSc1nc(NCCN2CCCC2)nc(SCCCCCC)n1 [Compound D3S6S10]
- Absolute mRNA transfection efficiency in HEK293 cells: 2.5%

SMILES: CCCCCCCCCCCSc1nc(NCCCCCC)nc(NCCN2CCCCC2)n1 [Compound D4S11N6]
- Absolute mRNA transfection efficiency in HEK293 cells: 2.7%

SMILES: CCCCCCCCCCCCCCCCCCNc1nc(NCCN2CCCCC2)nc(SCCCCCCCCCCC)n1 [Compound D4S11N18]
- Absolute mRNA transfection efficiency in HEK293 cells: 8.8%

SMILES: CCCCCCCCCCCCCCCCSc1nc(NCCCCCCCCCCC)nc(NCCCN(C)C)n1 [Compound D6S16N11]
- Absolute mRNA transfection efficiency in HEK293 cells: 63.0%

SMILES: CCCCCCCCCCCCCCCCSc1nc(NCCCCCCCCCCC)nc(NCCN(CC)CC)n1 [Compound D7S16N11]
- Absolute mRNA transfection efficiency in HEK293 cells: 8.3%

SMILES: CCCCCCCCCCCCCCCCCCSc1nc(NCCN2CCCC2)nc(N(CCCCCCCCCCCC)CCCCCCCCCCCC)n1 [D3S18^2N12]
- Absolute mRNA transfection efficiency in HEK293 cells: 0.1%
